17 molecules from US10752587B2, “Homobispiperidinyl derivatives as liver X receptor beta agonists, compositions and their use” (Merck Sharp & Dohme Corp., priority 2015, dated 2020) can be followed below.

Assay [1] concerns the target T1, glutathione-S-transferase (GST) tagged LXRbeta LBD (ligand binding domain) (Homo sapiens, UniProt P55055).
T1 construct: purchased Invitrogen pv4658.pps
T1 sequence (P55055 222-460 limits assumed): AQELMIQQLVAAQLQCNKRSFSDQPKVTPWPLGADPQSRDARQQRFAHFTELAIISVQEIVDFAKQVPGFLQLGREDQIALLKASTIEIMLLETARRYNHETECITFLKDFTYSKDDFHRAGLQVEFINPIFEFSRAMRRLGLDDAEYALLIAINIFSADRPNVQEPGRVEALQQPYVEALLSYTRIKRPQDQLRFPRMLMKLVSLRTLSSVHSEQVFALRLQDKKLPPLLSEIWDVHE
Description: LanthaScreen TR-FRET Liver X Receptor Coactivator Assay, co-activator recruitment to LXRbeta LBD. Format: biochemical. The settings on record: for Emax: efficacy at max dose, in relation to reference dual agonist T0901317, read-out: LXR beta Activity @ max dose (%); for EC50: potency (Inflection Point, IP), co-activator recruitment to LXRbeta LBD, in relation to T0901317, read-out: LXR beta IP. The essentials:
(§1)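 TR-FRET coactivator recruitment; compound + LBD, then fluorescein-coactivator peptide/Tb-anti-GST Ab mix; RT incubation; IP and Emax vs T0901317.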

Assay [2] deals with T2, glutathione-S-transferase (GST) tagged LXRalpha LBD (ligand binding domain) (Homo sapiens, UniProt Q13133).
T2 construct: purchased Invitrogen pv4655
T2 sequence (Q13133 209-447 limits assumed): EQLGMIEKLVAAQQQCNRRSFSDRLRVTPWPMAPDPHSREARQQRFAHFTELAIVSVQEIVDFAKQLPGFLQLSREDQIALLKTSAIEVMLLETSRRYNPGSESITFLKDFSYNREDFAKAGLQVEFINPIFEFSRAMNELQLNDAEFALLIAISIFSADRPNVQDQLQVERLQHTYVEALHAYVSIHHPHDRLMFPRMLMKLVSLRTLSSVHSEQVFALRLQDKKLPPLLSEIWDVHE
As to the kind of experiment: LanthaScreen TR-FRET Liver X Receptor Coactivator Assay, co-activator recruitment to LXRalpha LBD. Format: biochemical. The settings on record: for Emax: efficacy at max dose, in relation to reference dual agonist T0901317, read-out: LXR alpha Activity @ max dose (%); for EC50: read-out: LXR alpha IP. The essentials: as §1
A general note: In TR-FRET formats the signal depends on donor and acceptor labels being close together.

Setting [3] is: potency (Inflection Point, IP), co-activator recruitment to LXRalpha LBD, in relation to T0901317.

In the case of `CNC(=O)c1ccc(N2CCC(CC3CCN(C(=O)[C@](O)(c4cccc(OC(F)(F)F)c4)C(F)(F)F)CC3)CC2)nc1Cl` [Example 7-139, 2-chloro-N-methyl-6-{4-[(1-{(2R)-3,3,3-trifluoro-2-hydroxy-2-[3-(trifluoromethoxy)phenyl]propanoyl}piperidin-4-yl)methyl]piperidin-1-yl}pyridine-3-carboxamide], the Emax is 91% in assay [1] and 26% in assay [2]. Besides, the EC50 in assay [1] turned out to be 0.026 µM; in assay [2] (setting [3]), 0.223 µM.
The corresponding values for `CNC(=O)c1ccc(N2CCC(CC3CCN(C(=O)[C@@](O)(c4ccccc4)C(F)(F)F)CC3)CC2)nc1Cl` [Example 7-140, 2-chloro-N-methyl-6-[4-({1-[(2S)-3,3,3-trifluoro-2-hydroxy-2-phenylpropanoyl]piperidin-4-yl}methyl)piperidin-1-yl]pyridine-3-carboxamide] are 122%, 44%, 0.158 µM and 1.13 µM.
For the molecule `CNC(=O)c1ccc(N2CCC(CC3CCN(C(=O)[C@](O)(c4ccccc4)C(F)(F)F)CC3)CC2)nc1Cl` [Example 7-141, 2-chloro-N-methyl-6-[4-({1-[(2R)-3,3,3-trifluoro-2-hydroxy-2-phenylpropanoyl]piperidin-4-yl}methyl)piperidin-1-yl]pyridine-3-carboxamide], the Emax came out at 102% in assay [1] and 47% in assay [2]. Besides, the EC50 in assay [1] came to 0.013 µM; in assay [2] (setting [3]), 0.173 µM.
Taken in the same sequence, the figures for `CNC(=O)c1ccc(N2CCC(CC3CCN(C(=O)C(O)(c4cccnc4)C(F)(F)F)CC3)CC2)nc1Cl` (centres unmarked) [Example 7-142, 2-chloro-N-methyl-6-(4-{[1-(3,3,3-trifluoro-2-hydroxy-2-pyridin-3-ylpropanoyl)piperidin-4-yl]methyl}piperidin-1-yl)pyridine-3-carboxamide] were 133%, 81%, 0.099 µM and 2.55 µM.
Taken in the same sequence, the figures for `CNC(=O)c1ccc(N2CCC(CC3CCN(C(=O)C(O)(C(C)C)C(F)(F)F)CC3)CC2)nc1Cl` (centres unmarked) [Example 7-143, 2-chloro-6-[4-({1-[2-hydroxy-3-methyl-2-(trifluoromethyl)butanoyl]piperidin-4-yl}methyl)piperidin-1-yl]-N-methylpyridine-3-carboxamide] were 104%, 58%, 0.327 µM and 1.31 µM.
For `CNC(=O)c1ccc(N2CCC(CC3CCN(C(=O)C(O)(c4cccc(C#N)c4)C(F)(F)F)CC3)CC2)nc1Cl` (centres unmarked) [Example 7-144, 2-chloro-6-[4-({1-[2-(3-cyanophenyl)-3,3,3-trifluoro-2-hydroxypropanoyl]piperidin-4-yl}methyl)piperidin-1-yl]-N-methylpyridine-3-carboxamide], the Emax came out at 107% in assay [1] and 61% in assay [2]. For the same molecule, the results for the EC50 in assay [1] and in assay [2] (setting [3]) were 0.02 µM and 0.215 µM, respectively.
The corresponding values for `CNC(=O)c1ccc(N2CCC(CC3CCN(C(=O)[C@](O)(c4ccccc4F)C(F)(F)F)CC3)CC2)nc1Cl` [Example 7-145, 2-chloro-N-methyl-6-[4-({1-[(2R)-3,3,3-trifluoro-2-(2-fluorophenyl)-2-hydroxypropanoyl]piperidin-4-yl}methyl)piperidin-1-yl]pyridine-3-carboxamide] are 115%, 47%, 0.023 µM and 0.791 µM.
Taken in the same sequence, the figures for `CNC(=O)c1ccc(N2CCC(CC3CCN(C(=O)[C@](O)(c4cccc(Br)c4)C(F)(F)F)CC3)CC2)nc1Cl` [Example 7-146, 6-[4-({1-[(2R)-2-(3-bromophenyl)-3,3,3-trifluoro-2-hydroxypropanoyl]piperidin-4-yl}methyl)piperidin-1-yl]-2-chloro-N-methylpyridine-3-carboxamide] were 113%, 51%, 0.009 µM and 0.127 µM.
The corresponding values for `CNC(=O)c1ccc(N2CCC(CC3CCN(C(=O)[C@](O)(c4cccc(Cl)c4)C(F)(F)F)CC3)CC2)nc1Cl` [Example 7-147, 2-chloro-6-[4-({1-[(2R)-2-(3-chlorophenyl)-3,3,3-trifluoro-2-hydroxypropanoyl]piperidin-4-yl}methyl)piperidin-1-yl]-N-methylpyridine-3-carboxamide] are 100%, 63%, 0.004 µM and 0.051 µM.
For the molecule `CCc1cccc([C@@](O)(C(=O)N2CCC(CC3CCN(c4ccc(C(=O)NC)c(Cl)n4)CC3)CC2)C(F)(F)F)c1` [Example 7-148, 2-chloro-6-[4-({1-[(2R)-2-(3-ethylphenyl)-3,3,3-trifluoro-2-hydroxypropanoyl]piperidin-4-yl}methyl)piperidin-1-yl]-N-methylpyridine-3-carboxamide], the Emax was 65% in assay [1] and 24% in assay [2]. In addition, the EC50 worked out at 0.012 µM in assay [1] and 0.12 µM in assay [2] (setting [3]).
Consider `CNC(=O)c1ccc(N2CCC(CC3CCN(C(=O)[C@](O)(c4cccc(C(C)C)c4)C(F)(F)F)CC3)CC2)nc1Cl` [Example 7-149, 2-chloro-N-methyl-6-{4-[(1-{(2R)-3,3,3-trifluoro-2-hydroxy-2-[3-(1-methylethyl)phenyl]propanoyl}piperidin-4-yl)methyl]piperidin-1-yl}pyridine-3-carboxamide], for which the Emax in assay [1] came out at 91%; in assay [2], 32%. Also, the EC50 turned out to be 0.017 µM in assay [1] and 0.163 µM in assay [2] (setting [3]).
The corresponding values for `CNC(=O)c1ccc(N2CCC(CC3CCN(C(=O)[C@](O)(c4cccc(C(F)(F)F)c4)C(F)(F)F)CC3)CC2)nc1Cl` [Example 7-150, 2-chloro-N-methyl-6-{4-[(1-{(2R)-3,3,3-trifluoro-2-hydroxy-2-[3-(trifluoromethyl)phenyl]propanoyl}piperidin-4-yl)methyl]piperidin-1-yl}pyridine-3-carboxamide] are 84%, 42%, 0.024 µM and 0.256 µM.
Taken in the same sequence, the figures for `CNC(=O)c1ccc(N2CCC(CC3CCN(C(=O)[C@](O)(c4cccc(C)c4)C(F)(F)F)CC3)CC2)nc1Cl` [Example 7-151, 2-chloro-N-methyl-6-[4-({1-[(2R)-3,3,3-trifluoro-2-hydroxy-2-(3-methylphenyl)propanoyl]piperidin-4-yl}methyl)piperidin-1-yl]pyridine-3-carboxamide] were 81%, 34%, 0.007 µM and 0.121 µM.
Take `CNC(=O)c1ccc(N2CCC(CC3CCN(C(=O)[C@](O)(c4cccc(F)c4)C(F)(F)F)CC3)CC2)nc1Cl` [Example 7-152, 2-chloro-N-methyl-6-[4-({1-[(2R)-3,3,3-trifluoro-2-(3-fluorophenyl)-2-hydroxypropanoyl]piperidin-4-yl}methyl)piperidin-1-yl]pyridine-3-carboxamide]: the Emax in assay [1] came to 127%; in assay [2], 58%. For the same molecule, the EC50 worked out at 0.006 µM in assay [1] and 0.069 µM in assay [2] (setting [3]).
The corresponding values for `COc1cccc([C@@](O)(C(=O)N2CCC(OC3CCN(c4ccc(C(=O)N(C)C)c(Cl)n4)CC3)CC2)C(F)(F)F)c1` [Example 7-153, 2-chloro-N,N-dimethyl-6-[4-({1-[(2R)-3,3,3-trifluoro-2-hydroxy-2-(3-methoxyphenyl)propanoyl]piperidin-4-yl}oxy)piperidin-1-yl]pyridine-3-carboxamide] are 100%, 29%, 0.025 µM and 0.89 µM.
The corresponding values for `COc1cccc([C@@](O)(C(=O)N2CCC(OC3CCN(c4ccc(C(=O)N(C)C)c(OC)n4)CC3)CC2)C(F)(F)F)c1` [Example 7-154, 2-methoxy-N,N-dimethyl-6-[4-({1-[(2R)-3,3,3-trifluoro-2-hydroxy-2-(3-methoxyphenyl)propanoyl]piperidin-4-yl}oxy)piperidin-1-yl]pyridine-3-carboxamide] are 93%, 34%, 0.047 µM and 2.94 µM.
On to `CN(C)C(=O)c1ccc(N2CCC(OC3CCN(C(=O)N4CC(O)(C(F)(F)F)C4)CC3)CC2)cc1Cl` [Example 8-1, 2-chloro-4-(4-((1-(3-hydroxy-3-(trifluoromethyl)azetidine-1-carbonyl)piperidin-4-yl)oxy)piperidin-1-yl)-N,N-dimethylbenzamide], for which, in assay [1], the Emax was found to be 18% and the EC50 was determined as 30 µM. Further, in assay [2], the Emax stood at 2%. The “LXR alpha IP (nM)” value in assay [2] (setting [3]) is listed as “NO IP”.
